Measurements as given in patent US20120121508A1, “RADIOLABELED CGRP ANTAGONISTS” (Merck Sharp & Dohme Corp., priority 2009, published 2012).
“And” between values parts separate entries of the source, which are not always exact repeats. Equal entries are not always repeated.

What was measured:
rat P-gp = assay: Bidirectional transport, rat P-gp; assay type: in vitro ADME
Description: [The source words this procedure for another species and reports this species under the same test.] (§1) The bidirectional transport of the compound of Example 1 was evaluated across mono-layers of LLC-PK1 cells over-expressing human P-glycoprotein (Ohe et al., 2003).

[1] = target: T1, human AMY3 receptor (CTR/RAMP3) (Homo sapiens, UniProt O60896+P30988); assay: Amylin 3 receptor binding
T1 sequence (P30988 25-474): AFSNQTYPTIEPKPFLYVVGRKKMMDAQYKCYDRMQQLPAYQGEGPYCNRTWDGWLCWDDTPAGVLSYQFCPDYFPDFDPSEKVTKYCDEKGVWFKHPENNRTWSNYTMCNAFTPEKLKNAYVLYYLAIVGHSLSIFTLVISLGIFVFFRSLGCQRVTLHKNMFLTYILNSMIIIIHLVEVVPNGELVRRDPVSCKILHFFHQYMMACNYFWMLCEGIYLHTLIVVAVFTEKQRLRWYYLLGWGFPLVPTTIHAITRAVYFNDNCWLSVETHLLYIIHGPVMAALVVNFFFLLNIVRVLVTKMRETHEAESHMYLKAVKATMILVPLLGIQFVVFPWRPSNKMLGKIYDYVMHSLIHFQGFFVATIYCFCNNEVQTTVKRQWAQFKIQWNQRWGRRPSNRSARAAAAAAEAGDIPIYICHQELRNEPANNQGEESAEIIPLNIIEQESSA
T1 sequence (O60896 24-148): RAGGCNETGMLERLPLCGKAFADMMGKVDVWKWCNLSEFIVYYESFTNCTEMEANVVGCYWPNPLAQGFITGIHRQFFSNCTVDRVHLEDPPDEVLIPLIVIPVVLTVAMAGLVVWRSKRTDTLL
Description: (§2) The compound of Example 1 was evaluated against the related amylin 1 (AMY1; CTR/RAMP1) and amylin 3 (AMY3; CTR/RAMP3) receptors. […] Although the compound of Example 1 binds with high affinity to the related AMY1 receptor, this is not anticipated to negatively impact the utility of this molecule as a suitable PET tracer. […] Since the methods used to quantify CGRP receptor occupancy rely primarily on the cerebellar region, the affinity of the compound of Example 1 for AMY1 receptor should not interfere with the use of the PET tracer to accurately determine CGRP receptor occupancy.

[2] = system: African green monkey P-gp; assay: Bidirectional transport, African green monkey P-gp; assay type: in vitro ADME
[3] = target: T2, human P-glycoprotein (P-gp) (Homo sapiens, UniProt P08183); assay: Bidirectional transport across LLC-PK1 monolayers, human P-gp; assay type: in vitro ADME; details: LLC-PK1, human P-gp, read-out: B−A/A−B ratio
T2 construct: expressed in transfected cells; host or cells: LLC-PK1
Description: as §1

human P-glycoprotein = target: T3, human P-glycoprotein (Homo sapiens, UniProt P08183); assay: as above; assay type: in vitro ADME
T3 construct: expressed in transfected cells; host or cells: LLC-PK1
Description: as §1

[4] = target: T4, human CGRP receptor (CL receptor/RAMP1) (Homo sapiens, UniProt O60894+Q16602); assay: Recombinant receptor cAMP functional assay; assay type: cell-based; details: in the presence of 50% human serum
T4 construct: expressed in transfected cells
Description: (§3) RECOMBINANT RECEPTOR: Human CL receptor (Genbank accession number L76380) was subcloned into the expression vector pIREShyg2 (BD Biosciences Clontech) as a 5′NheI and 3′ PmeI fragment. Human RAMP1 (Genbank accession number AJ001014) was subcloned into the expression vector pIRESpuro2 (BD Biosciences Clontech) as a 5′NheI and 3′NotI fragment. HEK 293 cells (human embryonic kidney cells; ATCC #CRL-1573) were cultured in DMEM with 4.5 g/L glucose, 1 mM sodium pyruvate and 2 mM glutamine supplemented with 10% fetal bovine serum (FBS), 100 units/mL penicillin and 100 μg/mL streptomycin, and maintained at 37° C. and 95% humidity. Cells were subcultured by treatment with 0.25% trypsin with 0.1% EDTA in HBSS. […]
RECOMBINANT RECEPTOR FUNCTIONAL ASSAY: Cells were plated in complete growth medium at 85,000 cells/well in 96-well poly-D-lysine coated plates (Corning) and cultured for ˜19 h before assay. […] Dose response curves were plotted and IC50 values determined from a 4-parameter logistic fit as defined by the equation y=((a−d)/(1+(x/c)^b)+d, where y=response, x=dose, a=max response, d=min response, c=inflection point and b=slope.
(§4) The octanol/water partition coefficient (Log P) of the compound of Example 1 was determined by partitioning the compound between octanol and phosphate buffer at pH 7.4 and measuring the concentration of the compound in each layer by LC-MS/MS. […]

[5] = target: T4, human CGRP receptor (CL receptor/RAMP1); assay: Recombinant receptor binding assay vs [^125I]CGRP
Description: as §3, with “HBSS. Stable cell line generation was accomplished by co-transfecting 10 μg of DNA with 30 μg Lipofectamine 2000 (Invitrogen) in 75 cm^2 flasks. CL receptor and RAMP1 expression constructs were co-transfected in equal amounts. Twenty-four hours after transfection the cells were diluted and selective medium (growth medium+300 μg/mL hygromycin and 1 μg/mL puromycin) was added the following day.” for “HBSS.”
as §4

[6] = target: human AMY1 receptor (CTR/RAMP1) (Homo sapiens, UniProt O60894+P30988); assay: Amylin 1 receptor binding
Description: as §2

[7] = Passive permeability (Papp); assay type: in vitro ADME; details: pig, LLC-PK1, read-out: average apparent permeability coefficient (Papp)
Description: as §1

CGRP receptor = assay: PET CGRP receptor occupancy study in rhesus monkey brain; assay type: in vivo; details: IV bolus plus constant infusion, Hill equation fit, ±SE
Description: Baseline PET scans in rhesus monkey have confirmed the uptake and expected regional distribution of the PET tracer of [^11C]-Example 1 in the brain. […] In vivo occupancy studies were carried out with the compound of Example 1 to examine the utility of the PET tracer of [^11C]-Example 1 to establish a drug plasma level/CGRP receptor occupancy relationship. To establish steady plasma levels of drug, the compound of Example 1 was administered as an IV bolus plus constant infusion starting 60 minutes before the PET tracer of [^11C]-Example 1 injection; drug infusion was continued for the duration of the scan. Dynamic PET studies were acquired for 120-min following the PET tracer of [^11C]-Example 1 IV bolus administration. CGRP receptor availability was estimated using data-driven methods to describe the PET tracer of [^11C]-Example 1 plasma-brain kinetics. For each study, the PET tracer of [^11C]-Example 1 plasma concentration was obtained from the measurement of total radioactivity in arterial plasma with correction for the fraction of intact tracer as determined by HPLC analysis.
The absence of a reference region (devoid of CGRP receptor) requires the application of tracer kinetic modeling techniques using the PET tracer of [^11C]-Example 1 arterial plasma concentration in order to accurately quantify CGRP receptor occupancy in rhesus monkey. […]

[8] = Octanol/water partition coefficient (Log P); assay type: physicochemical; details: octanol / phosphate buffer pH 7.4, LC-MS/MS
Description: (§5) The octanol/water partition coefficient (Log P) of the compound of Example 1 was determined by partitioning the compound between octanol and phosphate buffer at pH 7.4 and measuring the concentration of the compound in each layer by LC-MS/MS. […] The compound of Example 1 was tested in the receptor binding and functional cell-based assays carried out in the presence and absence of human serum.

[9] = target: adrenomedullin 2 receptor, CLR-RAMP3 (Homo sapiens, UniProt O60896+Q16602); assay: Adrenomedullin 2 receptor binding (selectivity)
Description: as §5

T2 sequence (P08183 whole entry): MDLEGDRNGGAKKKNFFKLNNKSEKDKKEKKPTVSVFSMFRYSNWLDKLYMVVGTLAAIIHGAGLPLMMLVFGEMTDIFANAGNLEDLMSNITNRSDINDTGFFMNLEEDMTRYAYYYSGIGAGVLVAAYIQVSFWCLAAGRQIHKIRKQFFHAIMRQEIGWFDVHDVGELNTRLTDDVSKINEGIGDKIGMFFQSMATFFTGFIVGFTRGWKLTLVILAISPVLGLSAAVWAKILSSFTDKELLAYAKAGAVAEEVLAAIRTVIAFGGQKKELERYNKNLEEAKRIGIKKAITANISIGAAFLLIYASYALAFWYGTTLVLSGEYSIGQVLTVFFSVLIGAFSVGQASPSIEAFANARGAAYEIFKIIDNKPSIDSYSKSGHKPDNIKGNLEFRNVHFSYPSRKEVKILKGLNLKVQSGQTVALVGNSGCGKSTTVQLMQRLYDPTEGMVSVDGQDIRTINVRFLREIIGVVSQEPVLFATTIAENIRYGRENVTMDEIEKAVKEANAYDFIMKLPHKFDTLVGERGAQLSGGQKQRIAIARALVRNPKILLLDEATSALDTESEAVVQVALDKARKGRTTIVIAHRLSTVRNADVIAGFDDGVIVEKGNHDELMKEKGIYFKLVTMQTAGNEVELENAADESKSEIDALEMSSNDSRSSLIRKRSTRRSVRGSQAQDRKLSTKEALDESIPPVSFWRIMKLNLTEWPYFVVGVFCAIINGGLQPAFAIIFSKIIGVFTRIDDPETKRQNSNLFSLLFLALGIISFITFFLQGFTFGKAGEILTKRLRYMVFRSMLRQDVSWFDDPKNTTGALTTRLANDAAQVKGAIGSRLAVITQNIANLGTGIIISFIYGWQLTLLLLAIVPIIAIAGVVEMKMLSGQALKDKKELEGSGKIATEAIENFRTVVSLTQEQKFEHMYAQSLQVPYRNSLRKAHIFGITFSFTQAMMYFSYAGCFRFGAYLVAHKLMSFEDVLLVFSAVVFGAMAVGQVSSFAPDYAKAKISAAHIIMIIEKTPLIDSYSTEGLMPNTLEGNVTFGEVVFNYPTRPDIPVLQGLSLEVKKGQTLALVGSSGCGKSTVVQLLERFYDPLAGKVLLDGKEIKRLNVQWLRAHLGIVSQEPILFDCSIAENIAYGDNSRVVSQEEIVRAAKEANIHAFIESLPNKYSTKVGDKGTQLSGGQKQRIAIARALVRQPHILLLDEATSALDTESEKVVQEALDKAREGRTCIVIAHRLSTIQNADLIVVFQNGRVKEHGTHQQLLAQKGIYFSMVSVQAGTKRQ
T4 sequence (Q16602 23-461): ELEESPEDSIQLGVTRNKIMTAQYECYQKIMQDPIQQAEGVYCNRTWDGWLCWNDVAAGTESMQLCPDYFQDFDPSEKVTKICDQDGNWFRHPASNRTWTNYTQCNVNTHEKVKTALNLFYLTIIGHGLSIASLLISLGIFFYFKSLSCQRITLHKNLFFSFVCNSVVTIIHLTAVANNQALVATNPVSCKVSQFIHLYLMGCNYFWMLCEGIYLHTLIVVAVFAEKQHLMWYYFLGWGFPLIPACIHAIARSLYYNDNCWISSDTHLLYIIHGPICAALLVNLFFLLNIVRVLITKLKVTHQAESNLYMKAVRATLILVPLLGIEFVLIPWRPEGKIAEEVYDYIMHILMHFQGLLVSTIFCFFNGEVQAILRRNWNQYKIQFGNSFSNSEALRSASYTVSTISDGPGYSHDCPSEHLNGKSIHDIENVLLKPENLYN
T4 sequence (O60894 27-148): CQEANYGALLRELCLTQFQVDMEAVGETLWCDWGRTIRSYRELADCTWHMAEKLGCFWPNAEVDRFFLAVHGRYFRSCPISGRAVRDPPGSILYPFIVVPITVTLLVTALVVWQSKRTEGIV
T3 sequence (P08183 whole entry): as the sequence (P08183 whole entry) above
Sequence of human AMY1 receptor (CTR/RAMP1) (O60894 27-148, one chain of several): as the sequence (O60894 27-148) above
Sequence of adrenomedullin 2 receptor, CLR-RAMP3 (Q16602 23-461, one chain of several): as the sequence (Q16602 23-461) above

Structure (SMILES): CN1C[C@@](C)(c2cc(F)cc(F)c2)N(CC(=O)Nc2ccc3c(c2)C[C@@]2(C3)C(=O)Nc3ncccc32)C(=O)C12CCCC2 [Example 1, 2-[(8R)-8-(3,5-Difluorophenyl)-6,8-dimethyl-10-oxo-6,9-diazaspiro[4.5]dec-9-yl]-N-[(2R)-2′-oxo-1,1′,2′,3-tetrahydrospiro[indene-2,3′-pyrrolo[2,3-b]pyridin]-5-yl]acetamide]
- P-gp substrate status (rat P-gp; 5 μM): borderline substrate
- efflux ratio at 5 μM (rat P-gp; LLC-PK1, read-out: B−A/A−B ratio): 3.1
- Ki [1]: 212 nM
- P-gp substrate status ([2]; African green monkey P-gp, 1, 0.5 and 0.1 μM): weak substrate
- efflux ratio at 0.1 μM ([2]; LLC-PK1, African green monkey P-gp, 0.1 μM, read-out: B−A/A−B ratio): 5.4
- efflux ratio at 0.5 μM ([2]; LLC-PK1, African green monkey P-gp, 0.5 μM, read-out: B−A/A−B ratio): 4.1
- efflux ratio at 1 μM ([2]; LLC-PK1, African green monkey P-gp, 1 μM, read-out: B−A/A−B ratio): 3.9
- efflux ratio at 0.1 μM ([3]; 0.1 μM): 3.5
- efflux ratio at 0.5 μM ([3]; 0.5 μM): 2.9
- efflux ratio at 1 μM ([3]; 1 μM): 3
- efflux ratio at 5 μM ([3]; 5 μM): 1.7
- P-gp substrate status (human P-glycoprotein; human P-gp, 5 μM): not a substrate
- P-gp substrate status (human P-glycoprotein; human P-gp, 1, 0.5 and 0.1 μM): weak substrate
- IC50 [4]: 0.21 nM
- Ki [5]: 0.039 nM
- Ki [6]: 0.6 nM
- Papp [7]: 26 ×10⁻⁶ cm/s
- Occ50: plasma level for 50% CGRP receptor occupancy (CGRP receptor): ~11 nM and 11 ± 3 nM
- logP [8]: 3.38
- Ki [9]: 211 nM
